Source: patent US8546072B2, “Substrate for assaying β-glucan and/or endotoxin and assay method” (Wako Pure Chemical Industries, Ltd., priority 2008, dated 2013)
Primed or numbered codes have the meaning given here. The star is where a group is joined. NH(CH2)4NH′ = not defined here; Boc = CC(C)(C)OC(=O)*

Test system: clotting enzyme
Assay: Study on the reactivity of clotting enzyme by substrate (β-glucan-activated LAL fraction, HPLC of released fluorescent compound)
Format: biochemical, Limulus polyphemus
Conditions: β-glucan-specific LAL fraction, 25 ng/mL standard β-glucan (lentinan), 37° C., FIG. 3
Description: b) Aqueous solution of the peptide derivative of the present invention (hereinafter, sometimes abbreviated as substrate of the present invention): Boc-Thr-Gly-Arg-Gly-NH(CH2)4NH-Hilyte647 was dissolved in β-glucan-free water, and prepared to give 640 μM.
c) Aqueous substrate solution of known analogous substrate: Boc-Thr-Gly-Arg-NH-(CH2)4—NH-HiLyte647 obtained in Reference Example 1 was dissolved in β-glucan-free water, and prepared to give 640 μM.
d) Standard β-glucan solution: Intravenous lentinan preparation “Astellas” (Astellas Pharma Inc.) (1 mg) was dissolved in 0.1 M aqueous sodium hydroxide to give 50 μg/mL, and the solution was then diluted appropriately with β-glucan-free water, and used as the standard β-glucan solution. e) β-glucan specific LAL fraction solution: A fraction in which β-glucan-dependent clotting enzyme activity was detected was collected from the blood cell of American horseshoe crab (Limulus polyphemus) according to LAL extraction method described in pages 268 to 269 of “T. Kitagawa et al., Journal of Chromatography, 567 (1991) 267-273” and fractionation method by ion exchange chromatography, LAL fraction (a fraction corresponding to the fraction Nos. 7 to 20 in the above described literature) in 20 mM Tris-HCl buffer (pH 8.0) was obtained. […]

time in which the substrate was cleaved by the clotting enzyme (substrate 160 μM in reagent for reaction 1) | decomposition rate (area of released fluorescent compound versus total area) (after 2 hours of reaction) [%] | Substance
about 20 minutes |  | Boc-Thr-Gly-Arg-Gly-NH(CH2)4NH-Hilyte647 (Boc-TGRG-{NH(CH2)4NH′-HiLyte Fluor 647}) [tetrapeptide substrate with butanediamine spacer and HiLyte Fluor 647 dye]
 | ≤ 20 | Boc-Thr-Gly-Arg-NH(CH2)4NH-Hilyte647 [Reference Example 1]
